SMILES strings stand for the structures. Structures can show the parent of a compound that is named as a salt.

The term Ki denotes a measure of affinity in units of concentration, obtained from inhibition or displacement. The microsomal CLint is a measure of how fast metabolising enzymes remove a compound, apart from limits set by blood flow. Read a low microsomal CLint as greater metabolic stability.

The target of data set [1] is T1, human vasopressin V1b receptor (Homo sapiens, UniProt P47901).
T1 construct: expressed in transfected cells; host or cells: CHO-K1 (cell line hV1b_3H2_CHO)
T1 sequence (P47901 1-424): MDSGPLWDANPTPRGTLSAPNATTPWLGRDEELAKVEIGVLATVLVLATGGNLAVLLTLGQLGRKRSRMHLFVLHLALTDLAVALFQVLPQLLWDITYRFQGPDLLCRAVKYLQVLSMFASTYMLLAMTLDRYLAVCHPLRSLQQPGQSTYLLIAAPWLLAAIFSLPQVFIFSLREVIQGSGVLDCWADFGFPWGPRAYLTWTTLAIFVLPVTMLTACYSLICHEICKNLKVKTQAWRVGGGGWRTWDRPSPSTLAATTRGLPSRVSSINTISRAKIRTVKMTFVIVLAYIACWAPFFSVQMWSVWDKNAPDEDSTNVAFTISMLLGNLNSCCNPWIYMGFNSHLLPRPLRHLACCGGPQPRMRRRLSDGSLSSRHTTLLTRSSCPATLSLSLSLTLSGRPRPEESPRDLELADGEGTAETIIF
Description: Vasopressin V1b receptor binding assay. Particulars: read-out: Ki(h-V1b)*. The protocol: 1. Vasopressin V1b Receptor Binding Assay:
The substance concentration was further diluted 1:5 in the assay mixture (2% DMSO in the mixture).
All determinations were carried out as triplicate determinations.

Data set [2] has as its target T2, recombinant human oxytocin receptors (Homo sapiens, UniProt P30559).
T2 construct: expressed in transfected cells; host or cells: HEK-293 (transient)
T2 sequence (P30559 1-389): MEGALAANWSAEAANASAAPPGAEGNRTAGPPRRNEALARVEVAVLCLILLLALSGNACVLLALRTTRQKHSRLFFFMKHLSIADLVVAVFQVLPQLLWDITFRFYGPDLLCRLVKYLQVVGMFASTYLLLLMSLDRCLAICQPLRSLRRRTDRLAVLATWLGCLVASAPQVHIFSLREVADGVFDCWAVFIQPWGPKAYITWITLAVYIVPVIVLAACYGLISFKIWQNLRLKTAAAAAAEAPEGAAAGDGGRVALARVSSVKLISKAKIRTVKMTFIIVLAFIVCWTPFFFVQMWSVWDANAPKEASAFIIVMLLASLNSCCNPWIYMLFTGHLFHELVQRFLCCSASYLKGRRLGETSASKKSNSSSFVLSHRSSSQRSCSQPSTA
Description: Oxytocin receptor binding assay. As to conditions: selectivity quotient, human OT versus human V1b. The protocol: 4. Oxytocin Receptor Binding Assay
Confluent HEK-293 cells with transiently expressing recombinant human oxytocin receptors were centrifuged at 750×g at room temperature for 5 minutes. The residue was taken up in ice-cold lysis buffer (50 mM Tris-HCl, 10% glycerol, pH 7.4 and Roche complete protease inhibitor) and subjected to an osmotic shock at 4° C. for 20 minutes. The lyzed cells were then centrifuged at 750×g at 4° C. for 20 minutes, the residue was taken up in incubation buffer, and aliquots of 10^7 cells/ml were prepared. The aliquots were frozen at −80° C. until used.
On the day of the experiment, the cells were thawed, diluted with incubation buffer and homogenized using a Multipette Combitip (Eppendorf, Hamburg). […] The nonspecific binding was determined with 10^−6 M oxytocin (Bachem AG, H2510). Triplicate determinations were set up. Bound and free radioligand were separated by filtration under vacuum with Whatman GF/B glass fiber filters with the aid of a Skatron cell harvester 7000. The bound radioactivity was determined by liquid scintillation measurement in a Tricarb Beta counter, model 2000 or 2200CA (Packard).

Data set [3] is described as follows: Determination of the microsomal half-life / microsomal clearance (human liver microsomes). It is filed as in vitro ADME. As to conditions: pH 7.4, 0.5 μM test substance. The protocol:
5. Determination of the Microsomal Half-Life:
The metabolic stability of the compounds of the invention was determined in the following assay.
The test substances were incubated in a concentration of 0.5 μM as follows:
0.5 μM test substance are preincubated together with liver microsomes from different species (from rat, human or other species) (0.25 mg of microsomal protein/ml) in 0.05 M potassium phosphate buffer of pH 7.4 in microtiter plates at 37° C. for 5 min. The reaction is started by adding NADPH (1 mg/mL). After 0, 5, 10, 15, 20 and 30 min, 50 μl aliquots are removed, and the reaction is immediately stopped and cooled with the same volume of acetonitrile. The samples are frozen until analyzed. The remaining concentration of undegraded test substance is determined by MSMS. The half-life (T½) is determined from the gradient of the signal of test substance/unit time plot, it being possible to calculate the half-life of the test substance, assuming first order kinetics, from the decrease in the concentration of the compound with time. The microsomal clearance (mCl) is calculated from mCl=In2/T½/(content of microsomal protein in mg/ml)×1000 […] (modified from references: Di, The Society for Biomoleculur Screening, 2003, 453-462; Obach, DMD, 1999 vol. 27. N 11, 1350-1359).

The target of data set [4] is human vasopressin V1a receptor (Homo sapiens, UniProt P37288). Description: Vasopressin V1a receptor binding assay. As to conditions: selectivity quotient, human V1a versus human V1b.
human vasopressin V1a receptor, sequence (P37288 whole entry): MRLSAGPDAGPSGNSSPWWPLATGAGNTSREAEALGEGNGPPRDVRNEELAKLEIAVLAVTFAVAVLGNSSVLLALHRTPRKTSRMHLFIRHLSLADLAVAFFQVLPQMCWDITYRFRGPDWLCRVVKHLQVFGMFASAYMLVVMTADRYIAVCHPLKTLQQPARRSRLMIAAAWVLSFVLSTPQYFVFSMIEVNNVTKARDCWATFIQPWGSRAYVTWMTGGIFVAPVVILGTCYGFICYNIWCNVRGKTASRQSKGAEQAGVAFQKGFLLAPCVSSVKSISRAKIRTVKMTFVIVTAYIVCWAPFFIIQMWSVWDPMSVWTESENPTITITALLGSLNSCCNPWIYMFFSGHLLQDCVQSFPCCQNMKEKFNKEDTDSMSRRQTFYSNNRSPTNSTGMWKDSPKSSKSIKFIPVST

With `CCOc1ncccc1C1(OC(=O)N2CCN(C3CCN(C)CC3)CC2)C(=O)N(S(=O)(=O)c2ccccc2OC)c2ccc(C#N)cc21` (single isomer, unassigned; (-)) [Example 2B, (−)-5-Cyano-3-(2-ethoxypyridin-3-yl)-1-[(2-methoxyphenyl)sulfonyl]-2-oxo-2,3-dihydro-1H-indol-3-yl-4-(1-methylpiperidin-4-yl)piperazine-1-carboxylate], the Ki in data set [1] was less than 0.01 µM. The “Ki(h-OT)/Ki(h-V1b)*” value in data set [2] was “+++ (>45)”. The microsomal CLint at 0.5 μM in data set [3] is 75 to 200 µL/min/mg. The “Ki(h-V1a)/Ki(h-V1b)*” value in data set [4] was “+++ (>75)”.

As to `CCOc1ncccc1C1(OC(=O)N2CCN(C3CCN(C)CC3)CC2)C(=O)N(S(=O)(=O)c2ccccc2)c2ccc(C#N)cc21` (single isomer, unassigned; (-)) [Example 4B, (−)-5-Cyano-3-(2-ethoxypyridin-3-yl)-2-oxo-1-(phenylsulfonyl)-2,3-dihydro-1H-indol-3-yl 4-(1-methylpiperidin-4-yl)piperazine-1-carboxylate], in data set [1], the Ki was less than 0.01 µM. Also, in data set [2], the “Ki(h-OT)/Ki(h-V1b)*” value is “+++ (>45)”. The microsomal CLint at 0.5 μM in data set [3] was less than 50 µL/min/mg. Further, the “Ki(h-V1a)/Ki(h-V1b)*” value in data set [4] is reported as “+++ (>75)”.

As to `CCOc1ncccc1C1(OC(=O)N2CCC(N3CCNCC3)CC2)C(=O)N(S(=O)(=O)c2ccc(OC)cc2OC)c2ccc(C#N)cc21` (stereo not drawn) [Example 55, 5-Cyano-1-[(2,4-dimethoxyphenyl)sulfonyl]-3-(2-ethoxypyridin-3-yl)-2-oxo-2,3-dihydro-1H-indol-3-yl-4-piperazin-1-ylpiperidine-1-carboxylate as bis(trifluoroacetic acid) salt], the Ki in data set [1] was less than 0.01 µM. Also, the “Ki(h-OT)/Ki(h-V1b)*” value in data set [2] is “+ (15-25)”. In addition, the intrinsic clearance (microsomal CLint) at 0.5 μM in data set [3] was in the range of 75 to 200 µL/min/mg. The “Ki(h-V1a)/Ki(h-V1b)*” value in data set [4] is reported as “++ (>25-75)”.

Source of the values: US9422264B2, “Carbamate-substituted oxindole derivatives and use thereof for the treatment of vasopressin-dependent diseases” (AbbVie Deutschland GmbH & Co. KG, priority 2007, dated 2016).
